# Patent publication US4144242A, “Process for the purification of clavulanic acid” (Glaxo Laboratories Limited, priority 1975, dated 1979)
# Counter-ions that a name gives are not always drawn. Like-named read-outs stand apart in the source and are kept apart here.
# Assays:
# [1] = pKa by potentiometric titration of the salt; assay type: physicochemical
# [2] = system: β-lactamases produced by gram-positive organisms and by gram-negative organisms in classes I-V; assay: Stability to the action of β-lactamases; assay type: biochemical; details: β-lactamases of S. aureus, B. cereus and gram-negative classes I-V (Richmond and Sykes)
# [3] = system: gram-negative and gram-positive microorganisms; assay: Antibacterial activity; assay type: cell-based; details: range of gram-negative and gram-positive microorganisms
# β-lactamase enzymes = assay: Inhibition of β-lactamase enzymes; assay type: biochemical, gram-positive and gram-negative bacteria
# [4] = Stability in aqueous solution / on storage; assay type: physicochemical
# [5] = Solubility of lithium clavulanate in aqueous lithium chloride; assay type: physicochemical; details: about 20° C., read-out: Solubility in mz/ml of lithium clavulanate (approximate)
# Method: The eluate will normally contain the lithium salt, e.g. lithium chloride, at a concentration in the range 0.5 to 2.5M whereas, as indicated above, the salting out effect is most efficient at concentrations in the range 5M to 10 M. It is therefore preferred to concentrate the eluate, for example by evaporation in vacuo, e.g. by a factor of about 5. The solubility of lithium clavulanate at about 20° C. in various concentrations of aqueous lithium chloride is given in the following table: […]
# [6] = Uptake of atmospheric water (hygroscopicity); assay type: physicochemical
# Method: The solid was hygroscopic. It was ground in a pestle and mortar and allowed to take up atmospheric water at 18° C. After about 22% (w/w) of water was taken up, an equilibrium was reached.
structure (smiles),measurement,setting,value
O=C(O)[C@H]1/C(=C/CO)O[C@@H]2CC(=O)N21 [calcium salt],pKa,[1]; read-out: pKa value of the corresponding acid,~2.4
"O=C(O)[C@H]1/C(=C/CO)O[C@@H]2CC(=O)N21 [clavulanic acid, (2R, 5R, Z)-3-(2-hydroxyethylidene)-7-oxo-4-oxa-1-azabicyclo[3,2,0]heptane-2-carboxylic acid]",stability to the action of β-lactamases,[2],stable
same,antibacterial activity,[3],have antibacterial activity
same,inhibition of class I β-lactamase enzymes,"β-lactamase enzymes; a number of class I enzymes (e.g. Bacteroides fragilis, Proteus vulgaris, Proteus morganii, Proteus rettgeri, Enterobacter cloacae, Citrobacter freundii, Providencia species, Hafnia alvei)",inhibited
same,ability to inhibit β-lactamase enzymes,"β-lactamase enzymes; enzymes of gram-positive organisms (S. aureus, B. cereus) and classes II-V from gram-negative bacteria",possess the ability to inhibit β-lactamase enzymes
same,stability of the free acid,[4]; after its formation,rather unstable
same,stability in aqueous solution,"[4]; aqueous solution, dependence on pH",rather unstable in aqueous solution outside the pH range 5.5 to 8
O=C(O)[C@H]1/C(=C/CO)O[C@@H]2CC(=O)N21 [lithium clavulanate],solubility,[5]; 2.5 M aqueous LiCl,23500 µg/mL
same,solubility,[5]; 3.75 M aqueous LiCl,10200 µg/mL
same,solubility,[5]; 5.0 M aqueous LiCl,4100 µg/mL
same,solubility,[5]; 6.25 M aqueous LiCl,1800 µg/mL
same,solubility,[5]; 7.5 M aqueous LiCl,800 µg/mL
same,pKa value of the corresponding acid,[1]; listed as lithium salt,about 2.3
"O=C(O)[C@H]1/C(=C/CO)O[C@@H]2CC(=O)N21 [sodium salt, sodium clavulanate]",hygroscopicity,[6]; crystalline solid,hygroscopic
same,water taken up at equilibrium,"[6]; ground solid, atmospheric water at 18° C.",about 22 % (w/w)
